Reference: patent US20060069132A1, “Azolecarboxamide herbicides” (priority 2004, published 2006)
Like-named read-outs stand apart in the source and are kept apart here.

Assays:
Surinam grass = test: Test B pre-/postemergence herbicide test; type: in vivo, Urochloa decumbens; conditions: Urochloa decumbens; for pest or weed control at 125 g/ha: 125 g ai/ha; for pest or weed control at 500 g/ha: 500 g ai/ha
Summary of the method: (§1)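 Greenhouse pot assay with simultaneous preemergence (treated seed) and postemergence (2–18 cm seedlings) applications of surfactant-containing, non-phytotoxic solvent formulations. Response scored visually 13–15 days later on a 0–100 scale, 100 meaning complete control.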

cocklebur = test: Test B pre-/postemergence herbicide test; type: in vivo, Xanthium strumarium; conditions: Xanthium strumarium; for pest or weed control at 125 g/ha: 125 g ai/ha; for pest or weed control at 500 g/ha: 500 g ai/ha
Summary of the method: (§2)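 Formulation: non-phytotoxic solvent mix with surfactant. Timing: preemergence on seed and postemergence on 2–18 cm plants, applied concurrently. Readout after 13–15 d greenhouse: visual 0–100 control rating against controls.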

corn = test: Test B pre-/postemergence herbicide test; type: in vivo, Zea mays; conditions: Zea mays; for plant injury at 125 g/ha: 125 g ai/ha
Summary of the method: as §1

giant foxtail = test: Test B pre-/postemergence herbicide test; type: in vivo, Setaria faberi; conditions: Setaria faberi, 336 h; for pest or weed control at 125 g/ha: 125 g ai/ha; for pest or weed control at 500 g/ha: 500 g ai/ha
Summary of the method: as §1

lambsquarters = test: Test B pre-/postemergence herbicide test; type: in vivo, Chenopodium album; conditions: Chenopodium album, 336 h; for pest or weed control at 125 g/ha: 125 g ai/ha; for pest or weed control at 500 g/ha: 500 g ai/ha
Summary of the method: as §1

morningglory = test: Test B pre-/postemergence herbicide test; type: in vivo, Ipomoea coccinea; conditions: Ipomoea, 336 h; for pest or weed control at 125 g/ha: 125 g ai/ha; for pest or weed control at 500 g/ha: 500 g ai/ha
Summary of the method: as §2

pigweed = test: Test B pre-/postemergence herbicide test; type: in vivo, Amaranthus retroflexus; conditions: Amaranthus retroflexus, 336 h; for pest or weed control at 125 g/ha: 125 g ai/ha; for pest or weed control at 500 g/ha: 500 g ai/ha
Summary of the method: as §1

velvetleaf = test: Test B pre-/postemergence herbicide test; type: in vivo, Abutilon theophrasti; conditions: Abutilon theophrasti, 336 h; for pest or weed control at 125 g/ha: 125 g ai/ha; for pest or weed control at 500 g/ha: 500 g ai/ha
Summary of the method: as §1

blackgrass = test: Test B postemergence herbicide test; type: in vivo, Alopecurus myosuroides; conditions: Alopecurus myosuroides, post-emergence, 336 h, postemergence, visual rating, scale 0 (no effect) to 100 (complete control), read-out: Blackgrass plant response rating
Summary of the method: (§3)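 Scale 0–100: zero equals no visible effect, 100 complete control, judged by eye relative to controls. Timing: 13 to 15 days in greenhouse post-treatment. Growth stage at spraying: two leaves (paddy) or one to four leaves, 2–18 cm (postemergence).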

wheat = test: Test B postemergence herbicide test; type: in vivo, Triticum aestivum; conditions: Triticum aestivum, post-emergence, 336 h, postemergence, read-out: Wheat plant response rating
Summary of the method: as §3

wild oat = test: Test B postemergence herbicide test; type: in vivo, Avena fatua; conditions: Avena fatua, post-emergence, 336 h, postemergence, read-out: Oat, Wild plant response rating
Summary of the method: as §3

rice = test: Test B flooded paddy test; type: in vivo, Oryza sativa; conditions: Oryza sativa, 336 h, 1000 g ai/ha, scale 0 to 100 (0 no effect, 100 complete control), read-out: Rice plant response rating
Summary of the method: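 Greenhouse test; postemergence application to plants at 1–4 leaves (2–18 cm); paddy species at 2 leaves; evaluated visually vs controls at 13–15 days; scale 0–100 (100 = complete control).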

[1] = tested on: small flower umbrella sedge; test: Test B flooded paddy test; type: in vivo, Cyperus difformis; conditions: Cyperus difformis, 336 h, 1000 g ai/ha, scale 0 to 100 (0 no effect, 100 complete control), read-out: Sedge, Umbrella plant response rating
Summary of the method: as §3

ducksalad = test: Test B flooded paddy test; type: in vivo, Heteranthera limosa; conditions: Heteranthera limosa, 336 h, 1000 g ai/ha, scale 0 to 100 (0 no effect, 100 complete control), read-out: Ducksalad plant response rating
Summary of the method: as §3

barnyardgrass = test: Test B flooded paddy test; type: in vivo, Echinochloa crus-galli; conditions: Echinochloa crus-galli, 336 h, 1000 g ai/ha, scale 0 to 100 (0 no effect, 100 complete control), read-out: Barnyardgrass plant response rating
Summary of the method: as §3

[2] = post-emergence, postemergence, visual rating, scale 0 (no effect) to 100 (complete control), read-out: Cocklebur plant response rating
[3] = 125 g ai/ha, visual rating, scale 0 (no effect) to 100 (complete control)
[4] = 500 g ai/ha, scale 0 to 100, 0 is no effect, 100 is complete control

Work on CCN1N=C(C(C)(C)C)CC1C(=O)Nc1cc(C(=O)N(C)C)ccc1F (stereo not drawn) [Compound 268, N-[5-[(dimethylamino)carbonyl]-2-fluorophenyl]-3-(1,1-dimethylethyl)-1-ethyl-4,5-dihydro-1H-pyrazole-5-carboxamide] yielded a pest or weed control at 125 g/ha (Surinam grass; post-emergence, postemergence, visual rating, scale 0 (no effect) to 100 (complete control), read-out: Surinam Grass plant response rating) of 10%, a pest or weed control at 500 g/ha (Surinam grass; post-emergence, postemergence, scale 0 to 100, 0 is no effect, 100 is complete control, read-out: Surinam Grass plant response rating) of 50% and a pest or weed control at 125 g/ha (Surinam grass; pre-emergence, 0 = no effect, 100 = complete control, read-out: Surinam Grass plant response rating (0 to 100 scale)) of 80%. The pest or weed control at 500 g/ha (Surinam grass; pre-emergence, visual rating, 0 = no effect, 100 = complete control, read-out: Plant response rating, Surinam Grass) was 100%, the pest or weed control at 125 g/ha (cocklebur; [2]) was 20% and the pest or weed control at 500 g/ha (cocklebur; [2]) was 50%. For the same compound, the pest or weed control at 125 g/ha (cocklebur; pre-emergence, 0 = no effect, 100 = complete control, read-out: Cocklebur plant response rating (0 to 100 scale)) was 80%, the pest or weed control at 500 g/ha (cocklebur; pre-emergence, visual rating, 0 = no effect, 100 = complete control, read-out: Plant response rating, Cocklebur) was 90% and the plant injury at 125 g/ha (corn; post-emergence, postemergence, visual rating, scale 0 (no effect) to 100 (complete control), read-out: Corn plant response rating) was 20%. It also gave a plant injury at 500 g/ha (corn; post-emergence, postemergence, 500 g ai/ha, scale 0 to 100, 0 is no effect, 100 is complete control, read-out: Corn plant response rating) of 30%, a plant injury at 125 g/ha (corn; pre-emergence, 0 = no effect, 100 = complete control, read-out: Corn plant response rating (0 to 100 scale)) of 80% and a Corn plant response rating (crop injury, 0 = no effect, 100 = complete kill) at 500 g/ha (corn; pre-emergence, 500 g ai/ha, visual rating, 0 = no effect, 100 = complete control) of 90%. For the same compound, the pest or weed control at 125 g/ha (giant foxtail; post-emergence, postemergence, visual rating, scale 0 (no effect) to 100 (complete control), read-out: Foxtail, Giant plant response rating) was 10%, the pest or weed control at 500 g/ha (giant foxtail; post-emergence, postemergence, scale 0 to 100, 0 is no effect, 100 is complete control, read-out: Foxtail, Giant plant response rating) was 20% and the pest or weed control at 125 g/ha (giant foxtail; pre-emergence, 0 = no effect, 100 = complete control, read-out: Foxtail, Giant plant response rating (0 to 100 scale)) was 100%. It also gave a pest or weed control at 500 g/ha (giant foxtail; pre-emergence, visual rating, 0 = no effect, 100 = complete control, read-out: Plant response rating, Foxtail, Giant) of 100%, a pest or weed control at 125 g/ha (lambsquarters; post-emergence, postemergence, visual rating, scale 0 (no effect) to 100 (complete control), read-out: Lambsquarters plant response rating) of 60% and a pest or weed control at 500 g/ha (lambsquarters; post-emergence, postemergence, scale 0 to 100, 0 is no effect, 100 is complete control, read-out: Lambsquarters plant response rating) of 70%. The pest or weed control at 125 g/ha (lambsquarters; pre-emergence, 0 = no effect, 100 = complete control, read-out: Lambsquarters plant response rating (0 to 100 scale)) was 100%, the pest or weed control at 500 g/ha (lambsquarters; pre-emergence, visual rating, 0 = no effect, 100 = complete control, read-out: Plant response rating, Lambsquarters) was 100% and the pest or weed control at 125 g/ha (morningglory; post-emergence, postemergence, visual rating, scale 0 (no effect) to 100 (complete control), read-out: Morningglory plant response rating) was 10%. For the same compound, the pest or weed control at 500 g/ha (morningglory; post-emergence, postemergence, scale 0 to 100, 0 is no effect, 100 is complete control, read-out: Morningglory plant response rating) was 20%, the pest or weed control at 125 g/ha (morningglory; pre-emergence, 0 = no effect, 100 = complete control, read-out: Morningglory plant response rating (0 to 100 scale)) was 0% and the pest or weed control at 500 g/ha (morningglory; pre-emergence, visual rating, 0 = no effect, 100 = complete control, read-out: Plant response rating, Morningglory) was 20%. The pest or weed control at 125 g/ha (pigweed; post-emergence, postemergence, visual rating, scale 0 (no effect) to 100 (complete control), read-out: Pigweed plant response rating) was 20%, the pest or weed control at 500 g/ha (pigweed; post-emergence, postemergence, scale 0 to 100, 0 is no effect, 100 is complete control, read-out: Pigweed plant response rating) was 50% and the pest or weed control at 125 g/ha (pigweed; pre-emergence, 0 = no effect, 100 = complete control, read-out: Pigweed plant response rating (0 to 100 scale)) was 100%. The pest or weed control at 500 g/ha (pigweed; pre-emergence, visual rating, 0 = no effect, 100 = complete control, read-out: Plant response rating, Pigweed) was 100%, the pest or weed control at 125 g/ha (velvetleaf; post-emergence, postemergence, visual rating, scale 0 (no effect) to 100 (complete control), read-out: Velvetleaf plant response rating) was 20% and the pest or weed control at 500 g/ha (velvetleaf; post-emergence, postemergence, scale 0 to 100, 0 is no effect, 100 is complete control, read-out: Velvetleaf plant response rating) was 60%. For the same compound, the pest or weed control at 125 g/ha (velvetleaf; pre-emergence, 0 = no effect, 100 = complete control, read-out: Velvetleaf plant response rating (0 to 100 scale)) was 100%, the pest or weed control at 500 g/ha (velvetleaf; pre-emergence, visual rating, 0 = no effect, 100 = complete control, read-out: Plant response rating, Velvetleaf) was 100% and the pest or weed control at 125 g/ha (blackgrass; 125 g ai/ha) was 30%. For the same compound, the pest or weed control at 500 g/ha (blackgrass; 500 g ai/ha) was 50%, the plant injury at 125 g/ha (wheat; [3]) was 30% and the plant injury at 500 g/ha (wheat; [4]) was 30%. It also gave a pest or weed control at 125 g/ha (wild oat; [3]) of 30%, a pest or weed control at 500 g/ha (wild oat; [4]) of 50% and a plant injury at 1000 g/ha (rice) of 90%. It also gave a pest or weed control at 1000 g/ha [1] of 80%, a pest or weed control at 1000 g/ha (ducksalad) of 90% and a pest or weed control at 1000 g/ha (barnyardgrass) of 90%.
